No end group written: not given here.

Series [1] deals with rats. The experiment in a line: Bone mineral apposition rate in intact rats after subcutaneous injection of polypeptide, tetracycline labelling. It is filed as in vivo, Sprague-Dawley rats. The following applies: for Increase of bone apposition rate with respect to the control: non-N-terminus variants (Table Nineteen, FIG. 12); for Bone Apposition Rate, Mean: rats injected with non-N-terminus variants, SEQ ID NO:1 for comparison, lower metaphysis of right femur (Table Nineteen); for Bone stimulatory activity of substituted 10-amino acid polypeptides: rats about 300 grams, 100 nmoles s.c. per animal, N-terminus acetylated, C-terminus amidated, compared with family retaining full charge pattern. The procedure:
Experiments were carried out on three groups of six rats weighing between 295 and 320 g. A 1 mg per ml solution of the modified peptide (SEQ ID NO:3) was prepared in 0.1% acetic acid. A 1 mg per ml solution of the normal peptide (SEQ ID NO:1) was prepared in 0.1% acetic acid. Each rat of a first of the groups had subcutaneously injected into its right thigh 0.1 ml of the modified peptide solution. Similarly, each rat of the second group was injected with 0.1 ml of the normal peptide solution. Each rat of the third group, the control group, was injected with 0.1 ml of 0.1% acetic acid solution. Immediately following these injections, each rat was injected intramuscularly with 24 mg per Kg body weight of tetracycline hydrochloride dissolved in 0.5 ml of water. A second dose of tetracycline hydrochloride was administered 48 hours later. The animals were sacrificed 24 hours after the second dose by CO2 narcosis. The lower metaphysis of the right femur was dissected out and fixed in a 10% aqueous solution of formaldehyde buffered at pH 7.2 by acetate buffer. Bone sections were prepared for measurement as described above.
Sprague-Dawley rats were used as test animals to determine bone mineral apposition rate, as described above. Male rats having weights between 280 and 380 g were subject to subcutaneous injection after one week of acclimatization. Each animal was injected with 200 μl of a 0.1% acetic acid test solution, solutions having been prepared at concentrations to obtain a dosage of about 25 nmol of polypeptide per animal. Each test dose was immediately followed by intramuscular injection of 24 mg per Kg of body weight of tetracycline hydrochloride. A second injection of tetracycline was made 48 hours later.
Bone mineral apposition rates were determined by measurements of the lower metaphysis of the right femur, as described previously. Results obtained in the two sets of experiments are summarized in Tables Seven and Eight and graphically depicted in FIGS. 8 and 9.
Bone mineral apposition rates were again determined by measurement of the lower metaphysis of the right femur. Results obtained are summarized in Table Nineteen and graphically depicted in FIG. 12. […]
In a final set of experiments, a polypeptide having the ninth amino acid, cysteine, replaced by the amino acid tyrosine, SEQ ID NO:43, was synthesized and tested for bone stimulatory activity. Four rats (about 300 grams) were each administered with 100 nmoles of material (in 400 μl 20 mM acetic acid solution) by subcutaneous injection along with tetracycline (5 mg per animal in 400 μl water), as described above. A second dosage of tetracycline was administered 48 hours later and the animals sacrificed 24 hours after that. The lower metaphysis of the right femur was examined to determine the bone mineral apposition rate. For comparison, experiments were performed using a control in which no compound was present in the acetic acid solution.

Series [2] in a line: Stability of dissolved polypeptides (capillary electrophoresis, RP-HPLC). The format is physicochemical. As to conditions: for Stability relative to SEQ ID NOs: 7 or 24: general summary of stability tests. The procedure:
Each of the polypeptides having the sequences identified as SEQ ID NO: 7 and 24 was dissolved in 5 mM acetic acid to a final concentration of 1 mg/ml and incubated at 37° C. The peptide compositions were analyzed weekly by capillary electrophoresis on a P/ACE 6000 system (Beckman) using 50 mM sodium phosphate pH 2.5 as the running buffer on a 57 cm long×75 μm internal diameter capillary. The incubated peptide (20 μl) was diluted with 80 μl of running buffer, placed in a 500 μl vial prior to injection onto the P/ACE using pressure for 20 seconds. Following electrophoresis of the incubated peptide at 30 kV for 15 min a second run was carried out using freshly dissolved peptide as a control.
Each of the polypeptides was dissolved in 20 mM sodium phosphate pH 3.0, 20 mM ammonium acetate pH 4.0, 20 mM ammonium acetate pH 5.0, 20 mM MES pH 6.0, 20 mM sodium phosphate pH 7.0, 20 mM sodium phosphate pH 7.5, 20 mM sodium phosphate pH 8.0, 20 mM ammonium acetate pH 8.5 or 20 mM ammonium acetate pH 9.5 to a final concentration of 1 mg/ml. The peptide was incubated at 37° C. and the peptide assayed weekly by separation on P/ACE as described above. Some samples were separated by RP-HPLC and the isolated peaks subjected to mass spectroscopic analysis.
The protected polypeptide identified as SEQ ID NO:24 was dissolved in 20 mM or 250 mM ammonium acetate pH 4.5 to a final concentration of 1 mg/ml. In some experiments the buffer was supplemented with 20 mM EDTA. The peptide solution was then incubated at −70° C., −20° C., 4° C. or room temperature (22° C.). Samples were assayed weekly by electrophoresis on the P/ACE as described above and/or by RP-HPLC.
The stability of each of the polypeptides having the amino acid sequences identified as SEQ ID NOs: 25, 26 and 27 was tested as described above.

Where [3] appears, read: about 25 nmol per animal s.c., second, separate set (Table Eight).
Where [4] appears, read: about 125 nmoles of polypeptide per Kg of body weight (Table Twenty).
Where [5] appears, read: approximately 500 gm male Sprague-Dawley rats, 300 nmol/kg bodyweight (Table Twenty-Two).
The mark [6] stands for this setting: male Sprague-Dawley rats 280-380 g, about 25 nmol per animal s.c., first set (Table Seven).
The mark [7] stands for this setting: 20 mM buffers pH 3.0 to 9.5, 1 mg/ml, 37° C.

On to “Arg Thr Asn Glu His Thr Ala Asp Cys Lys (Ac-RTNEHTADCK-NH2) [SEQ ID NO:9]”, for which the “Bone mineral apposition rate, Mean” value in series [1] (setting [3]) worked out at 2.83 μm/d. Besides, the “Mean Bone Apposition Rate” value in series [1] (setting [4]) stood at 2.11 μm/day. As for “CH3CO-Arg Thr Asn Glu His Thr Ala Glu Cys Lys-NH2 (Ac-RTNEHTAECK-NH2) [SEQ ID NO:25]”, in series [2], the “Stability relative to SEQ ID NOs: 7 or 24” value is on record as “more stable”. Also, the Stability in solution result in series [2] (pH 2.5-3.0 for 20 days) is given as “stable”. In addition, in series [1] (Table Twenty-One, FIG. 14, N=4), the “Mean Bone Apposition Rate” value was determined as 1.94 μm/day. As for “CH3CO-Arg Thr Gln Glu His Thr Ala Asp Cys Lys-NH2 (Ac-RTQEHTADCK-NH2) [SEQ ID NO:27]”, the Stability in solution result in series [2] (all pHs tested, 37° C. for 3 days) was “unstable”. The “Stability relative to SEQ ID NOs: 7 or 24” value in series [2] is recorded as “significantly less stable”. The “Mean Bone Apposition Rate” value in series [1] (Table Twenty-One, FIG. 14, N=4) was 1.72 μm/day. As for “CH3CO-Arg Thr Gln Glu His Thr Ala Glu Cys Lys-NH2 (Ac-RTQEHTAECK-NH2) [SEQ ID NO:26]”, in series [2], the “Stability relative to SEQ ID NOs: 7 or 24” value is recorded as “more stable”. In addition, the Stability in solution result in series [2] (pH 2.5-3.0, incubated at 37° C.) is given as “stable”. For the same substance, the “Mean Bone Apposition Rate” value in series [1] (Table Twenty-One, FIG. 14, N=4) came out at 2.88 μm/day; in series [1] (setting [5]), 2.04 μm/day. Turning to “GIGKRTNEHTADAKIKPNTLHKKAAETLMVLDQNQP [SEQ ID NO:3]”, the “Bone mineral apposition rate, Mean” value in series [1] (rats 295-320 g, 0.1 ml of 1 mg per ml solution s.c., lower metaphysis of right femur (Table Six)) is 1.35 μm/d. In the case of GIGKRTNEHTADCK [SEQ ID NO:8], the “Bone mineral apposition rate, Mean” value in series [1] (setting [3]) amounted to 2.09 μm/d.

In the case of GIGKRTNEHTADCKIKPNTL [SEQ ID NO:6], the “Bone mineral apposition rate, Mean” value in series [1] (setting [6]) came out at 1.37 μm per day.

Take GIGKRTNEHTADCKIKPNTLHKKAA [SEQ ID NO:5]: the “Bone mineral apposition rate, Mean” value in series [1] (setting [6]) is listed as 1.35 μm per day. Regarding “GIGKRTNEHTADCKIKPNTLHKKAAETLMV [SEQ ID NO:4]”, the “Bone mineral apposition rate, Mean” value in series [1] (setting [6]) worked out at 1.31 μm per day. With LHKKAAETLMVLD [SEQ ID NO:13], in series [1], the “Increase of bone apposition rate with respect to the control” value (“Increase of bone apposition rate” below) was “none”. Same read-out and setting: for LHKKAAETLMVLDQ [SEQ ID NO:12] the value was “none”; for LHKKAAETLMVLDQN [SEQ ID NO:11], “none”; for LHKKAAETLMVLDQNQ [SEQ ID NO:10], “none”. RTNEHTADCKI [SEQ ID NO:16]: in series [1], the “Increase of bone apposition rate” value is “none” and the “Bone Apposition Rate, Mean” value was 1.02 μm/day. On the same counts, the results for “RTNEHTADCKIKPNTLHKKAAETLMVLDQN [SEQ ID NO:15]” are “none” and 0.92 μm/day. For “SEQ ID NO:24: ten amino acid sequence of SEQ ID NO:9, acetylated at the amino terminus and amidated at the carboxy terminus (Ac-RTNEHTADCK-NH2)”, the “Stability when dissolved in dilute acids” value in series [2] (5 mM acetic acid, 1 mg/ml, 37° C., analyzed weekly by capillary electrophoresis) is given as “degraded overtime”. Also, in series [2] (setting [7]), the “pH above which the peptide dimerized” value was > 6.0, the “pH at which the peptide was most stable” value is given as ~4.5 and the “pH below which the peptide degraded” value is listed as < 4.0. Further, the “Stability as a powder and when dissolved in pH 4.5 buffer” value in series [2] (20 mM or 250 mM ammonium acetate pH 4.5, 1 mg/ml) is given as “very stable”. Besides, the “Dissolved peptide compared with dry peptide stored at −70° C.” value in series [2] (ammonium acetate pH 4.5, 1 mg/ml, incubated at 4° C., −20° C. or −70° C., up to 28 days) is given as “unchanged”. In addition, the “Time after which modification of the peptide was observed (RP-HPLC)” value in series [2] (ammonium acetate pH 4.5, 1 mg/ml, room temperature (22° C.)) is 7 days. The “Mean Bone Apposition Rate” value in series [1] (Table Twenty-One, FIG. 14, N=4) was 2.04 μm/day. Besides, the “Mean Bone Apposition Rate” value in series [1] (setting [4]) is listed as 2.72 μm/day.

Regarding “SEQ ID NO:34: SEQ ID NO:24 sequence with one amino acid having a charged side chain substituted by alanine; acetylated, amidated (Ac-ATNEHTADCK-NH2)”, the “Bone stimulatory activity of substituted 10-amino acid polypeptides” value (“Bone stimulatory activity” below) in series [1] was “lack or to exhibit substantially less bone stimulatory activity”. For “SEQ ID NO:36: SEQ ID NO:24 sequence with one amino acid having a charged side chain substituted by alanine; acetylated, amidated (Ac-RTNEATADCK-NH2)”, the “Bone stimulatory activity” value in series [1] is given as “lack or to exhibit substantially less bone stimulatory activity”. As to “SEQ ID NO:37: SEQ ID NO:24 sequence with one amino acid having a charged side chain substituted by alanine; acetylated, amidated (Ac-RTNEHTAACK-NH2)”, the “Bone stimulatory activity” value in series [1] is on record as “lack or to exhibit substantially less bone stimulatory activity”.

On to “SEQ ID NO:38: SEQ ID NO:24 sequence with one amino acid having a charged side chain substituted by alanine; acetylated, amidated (Ac-RTNEHTADCA-NH2)”, for which, in series [1], the “Bone stimulatory activity” value is “lack or to exhibit substantially less bone stimulatory activity”. Regarding “SEQ ID NO:45: third amino acid asparagine replaced by glutamine, eighth aspartic acid by glutaric acid, ninth cysteine by tyrosine (as printed) (Ac-RTQEHTAEYK; not fully specified; also: position 8 stated as glutaric acid replacing Asp, X10 not defined)”, the “Mean Bone Apposition Rate” value in series [1] (setting [5]) is on record as 1.77 μm/day.

TADCKIKPNTLHKKAAETLMVLD [SEQ ID NO:14]: in series [1], the “Increase of bone apposition rate” value was “none” and the “Bone Apposition Rate, Mean” value came out at 0.92 μm/day.

(Values after US6743895B1, “Bone stimulating factor” (Osteopharm Inc., priority 1995, dated 2004).)
